Calls of active or inactive are those of the source.
Assays:
[1] = target: Potassium channel subfamily K member 9 (Homo sapiens, UniProt Q9NPC2); experiment: TASK3 (KCNK9) channel inhibitors, thallium flux, SAR follow-up, selectivity assay for TASK1 inhibitor project, cell-based, FluxOR thallium flux, concentration-response (AID 652211); type: functional;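 note: potency is for inhibitors of the channel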
[2] = target: Potassium channel subfamily K member 3 (Homo sapiens, UniProt O14649); experiment: TASK1 (KCNK3) potassium channel inhibitors, SAR follow-up, CHO cells, FluxOR thallium flux (AID 652212); type: functional
[3] = T. cruzi growth inhibition in host cells, dose response, cell-based, plate reader, dry powder, set 2 (AID 652275); type: functional
[4] = T. cruzi intracellular amastigote growth inhibition, dose response, imaging, CA-I/72 strain, bovine embryo skeletal muscle, dry powder (AID 651885); type: functional, cell-based
[5] = Late stage assay provider results from the probe development effort to identify inhibitors of the Plasmodium falciparum M18 Aspartyl Aminopeptidase (M18AAP): radiolabel-based cell-based dose response assay to identify compounds that inhibit P. falciparum growth in RBCs, Set 2..; type: functional
[6] = Late stage assay provider results from the probe development effort to identify selective inhibitors of heat shock protein 90 (HSP90): Absorbance-based cell proliferation assay in MCF7 cells.; type: functional
[7] = Late stage assay provider results from the probe development effort to identify selective inhibitors of heat shock protein 90 (HSP90): Absorbance-based cell proliferation assay in SKBR3 cells.; type: functional; details: SK-BR-3
[8] = cytotoxicity in HeLa cells, dose response, cytotoxicity control, cell-based, plate reader, dry powder (AID 651946); type: functional
[9] = SK-MEL-5 parental line viability, dose response, MITF inhibitor project, cell-based, CellTiter-Glo, dry powder, set 6 (AID 624429); type: functional
[10] = MITF Measured in Cell-Based System Using Plate Reader - 2084-01_Inhibitor_Dose_DryPowder_Activity_Set6.; type: functional
[11] = A375 melanoma cell cytotoxicity, dose response, counter-screen for MITF inhibitor project, CellTiter-Glo luminescence, dry powder, set 7 (AID 624490); type: functional, cell-based; details: A-375
[12] = MITF Orthogonal Assay: SK-MEL-5 CTG Assay Measured in Cell-Based System Using Plate Reader - 2084-02_Inhibitor_Dose_DryPowder_Activity_Set5.; type: functional
[13] = MITF Measured in Cell-Based System Using Plate Reader - 2084-01_Inhibitor_Dose_DryPowder_Activity_Set7.; type: functional
[14] = target: T1, Oxysterols receptor LXR-beta (Homo sapiens, UniProt P55055); type: functional, cell-based;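 note: agonist activity at LXR measured by a cell-based luminescence readout across a dose range, run as a counterscreen for daf-12 agonists; HEK293 cells with Gal4-LXR fusion and GAL4-driven luciferase reporter; potency for activation of Gal4-LXR reporter so compounds are agonists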
T1 sequence (P55055 whole entry): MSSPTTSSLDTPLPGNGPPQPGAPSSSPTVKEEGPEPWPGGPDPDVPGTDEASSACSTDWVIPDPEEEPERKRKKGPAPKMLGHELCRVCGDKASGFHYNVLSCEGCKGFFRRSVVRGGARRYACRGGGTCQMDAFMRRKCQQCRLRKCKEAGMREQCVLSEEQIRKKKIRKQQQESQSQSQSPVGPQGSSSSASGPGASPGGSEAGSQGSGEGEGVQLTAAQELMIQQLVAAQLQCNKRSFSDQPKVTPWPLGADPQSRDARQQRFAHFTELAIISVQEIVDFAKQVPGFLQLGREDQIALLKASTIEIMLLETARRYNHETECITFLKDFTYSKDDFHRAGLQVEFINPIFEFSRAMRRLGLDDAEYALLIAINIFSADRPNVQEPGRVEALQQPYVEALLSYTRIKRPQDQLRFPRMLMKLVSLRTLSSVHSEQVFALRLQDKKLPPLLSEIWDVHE

[15] = Plasmodium falciparum Dd2 Sybr green parasite growth Measured in Cell-Based and Microorganism Combination System Using Plate Reader - 2153-01_Inhibitor_Dose_DryPowder_Activity_Set3.; type: functional
[16] = HepG2 cell cytotoxicity, dose response, cytotoxicity control, plate reader, dry powder samples (AID 1159569); type: functional, cell-based;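 note: inhibitor potency with signal falling toward the positive control level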
[17] = P. falciparum Dd2 growth inhibitors, dose response, SYBR Green, cherry-picked samples (AID 1159567); type: functional, cell-based
[18] = P. falciparum ATP4 D1247Y mutant growth inhibitors, dose response, NITD609-resistant line, SYBR Green, dry powder (AID 1159571); type: functional, cell-based;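 note: parasites synchronized at ring stage by sorbitol before testing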
[19] = P. falciparum 3D7-ScDHODH growth inhibitors, dose response, SYBR Green, dry powder samples (AID 1159570); type: functional, cell-based;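 note: parasite growth measured after 72 hours of compound exposure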
[20] = P. falciparum Dd2 growth inhibitors, dose response, SYBR Green, dry powder samples (AID 1159566); type: functional, cell-based;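 note: potency for growth inhibition with lower SYBR green DNA signal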
[21] = target: Metabotropic glutamate receptor 7 (Homo sapiens, UniProt Q14831); experiment: mGlu7 positive allosteric modulators, dose response, cell-based, calcium mobilization, Galpha15 (AID 743384); type: functional
[22] = HepG2 cell cytotoxicity, dose response, cytotoxicity control, ATP luminescence, dry powder, set 2 (AID 743129); type: functional, cell-based
[23] = HEK293T cell cytotoxicity, dose response, cytotoxicity control, plate reader, dry powder, set 10 (AID 743315); type: functional, cell-based; details: HEK293
[24] = HCT116 cell viability decrease, GSK3B pretreatment – CellTiter-Glo, IC50, dose response (AID 1117339); type: functional; details: HCT-116
[25] = CellTiter-Glo luminescent dose response of DLD-1 viability loss (AID 1117352); type: functional
[26] = Concentration-dependent survival of SW480 colon cancer line, luminescence detection with CellTiter-Glo, half-maximal inhibitory concentration (AID 1117338); type: functional
[27] = RKO cell viability reduction, dose response, CellTiter-Glo luminescence (AID 1117322); type: functional
[28] = cytotoxicity toward HT-29 cells – cell-based, CellTiter-Glo luminescence, IC50, dose response (AID 1117330); type: functional
[29] = cytotoxicity toward Colo320 cells – cell-based, CellTiter-Glo luminescence, IC50, dose response (AID 1117334); type: functional; details: COLO 320
[30] = SNU-C1 cell viability reduction, dose response, CellTiter-Glo luminescence (AID 1117323); type: functional, cell-based
[31] = cytotoxicity toward HCT116 cells – cell-based, CellTiter-Glo luminescence, IC50, dose response (AID 1117332); type: functional; details: HCT-116
fMet-Leu-Phe receptor = fMet-Leu-Phe receptor (Homo sapiens, UniProt P21462); experiment: FPR ligands, dose response (AID 519); type: functional
[32] = Dose-response inhibition of insulin secretion in a rat insulinoma line at 5 mM glucose (AID 1117331); type: functional, cell-based; details: INS-1E

fMet-Leu-Phe receptor, sequence (P21462 whole entry): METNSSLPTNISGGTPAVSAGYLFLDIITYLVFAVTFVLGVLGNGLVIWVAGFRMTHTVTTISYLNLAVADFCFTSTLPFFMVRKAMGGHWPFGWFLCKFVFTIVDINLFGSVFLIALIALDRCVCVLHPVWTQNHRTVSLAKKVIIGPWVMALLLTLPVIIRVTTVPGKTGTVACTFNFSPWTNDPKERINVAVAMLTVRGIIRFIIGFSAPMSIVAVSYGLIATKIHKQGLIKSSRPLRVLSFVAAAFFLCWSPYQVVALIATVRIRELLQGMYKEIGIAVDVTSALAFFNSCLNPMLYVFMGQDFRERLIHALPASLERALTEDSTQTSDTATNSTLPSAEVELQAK
Metabotropic glutamate receptor 7, sequence (Q14831 whole entry): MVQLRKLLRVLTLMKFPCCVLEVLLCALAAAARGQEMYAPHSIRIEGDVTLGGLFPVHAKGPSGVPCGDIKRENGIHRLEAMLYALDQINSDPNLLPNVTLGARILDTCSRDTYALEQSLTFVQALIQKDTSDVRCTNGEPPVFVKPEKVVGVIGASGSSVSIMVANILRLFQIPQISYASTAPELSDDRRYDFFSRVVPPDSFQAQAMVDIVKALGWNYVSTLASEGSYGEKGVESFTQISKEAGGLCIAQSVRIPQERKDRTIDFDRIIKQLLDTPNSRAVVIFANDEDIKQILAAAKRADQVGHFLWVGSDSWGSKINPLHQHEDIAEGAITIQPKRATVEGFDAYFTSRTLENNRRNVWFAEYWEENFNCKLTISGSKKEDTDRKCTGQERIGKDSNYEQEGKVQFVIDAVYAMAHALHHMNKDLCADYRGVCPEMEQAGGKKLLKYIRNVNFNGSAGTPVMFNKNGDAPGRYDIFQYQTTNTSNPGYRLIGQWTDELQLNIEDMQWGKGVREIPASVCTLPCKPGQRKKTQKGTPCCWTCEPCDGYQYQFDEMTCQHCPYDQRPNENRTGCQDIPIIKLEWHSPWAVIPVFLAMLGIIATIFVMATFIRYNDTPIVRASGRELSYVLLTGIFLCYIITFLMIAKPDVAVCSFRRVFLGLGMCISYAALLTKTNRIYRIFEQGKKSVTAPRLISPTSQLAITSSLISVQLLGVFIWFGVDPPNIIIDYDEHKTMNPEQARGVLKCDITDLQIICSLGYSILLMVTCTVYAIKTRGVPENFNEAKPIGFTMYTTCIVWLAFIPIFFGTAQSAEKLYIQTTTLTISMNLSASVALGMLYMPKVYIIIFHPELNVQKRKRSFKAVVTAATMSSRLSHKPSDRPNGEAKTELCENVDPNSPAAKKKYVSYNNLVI
Potassium channel subfamily K member 9, sequence (Q9NPC2 whole entry): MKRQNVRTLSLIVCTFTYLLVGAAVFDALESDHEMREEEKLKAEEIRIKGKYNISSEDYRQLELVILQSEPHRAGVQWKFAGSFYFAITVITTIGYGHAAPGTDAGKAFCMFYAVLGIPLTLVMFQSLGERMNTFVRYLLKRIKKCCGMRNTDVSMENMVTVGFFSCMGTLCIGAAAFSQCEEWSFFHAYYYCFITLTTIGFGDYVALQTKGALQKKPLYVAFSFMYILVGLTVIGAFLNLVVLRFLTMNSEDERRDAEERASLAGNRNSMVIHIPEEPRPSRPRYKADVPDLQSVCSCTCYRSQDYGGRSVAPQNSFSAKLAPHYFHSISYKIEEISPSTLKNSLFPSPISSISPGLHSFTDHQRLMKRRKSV
Potassium channel subfamily K member 3, sequence (O14649 whole entry): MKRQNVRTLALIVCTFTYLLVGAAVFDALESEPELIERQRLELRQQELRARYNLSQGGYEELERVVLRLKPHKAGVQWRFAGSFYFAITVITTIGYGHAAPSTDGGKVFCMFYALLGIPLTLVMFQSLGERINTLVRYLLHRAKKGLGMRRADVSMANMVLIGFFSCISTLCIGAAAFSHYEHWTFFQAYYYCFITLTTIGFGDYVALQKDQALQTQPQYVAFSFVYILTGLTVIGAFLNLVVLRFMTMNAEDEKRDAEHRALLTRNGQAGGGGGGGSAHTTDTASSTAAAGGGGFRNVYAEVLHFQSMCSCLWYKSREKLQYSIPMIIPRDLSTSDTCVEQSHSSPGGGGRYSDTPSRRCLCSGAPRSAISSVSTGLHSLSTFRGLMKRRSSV

For `Cc1cccc(C(=O)Nc2cccc(NC(=O)c3cccs3)c2)c1`, the IC50 [1] was 0.23 µM (active) and the IC50 [2] was 0.007 µM (active).

With `C[C@@H]1CN([C@@H](C)CO)C(=O)c2cccc(NC(=O)c3cnccn3)c2O[C@H]1CN(C)Cc1ccc(Oc2ccccc2)cc1` the AC50 [3] was 1.96 µM (active) and the IC50 [4] was > 20 µM (inactive).

For `COc1ccc(CCNc2c3c(nc4ccccc24)CCCC3)cc1OC`, the IC50 [5] was 16.5 µM (inactive).

With `COc1ccccc1NC(=O)c1ccc(=O)oc1` the IC50 [6] was 30.2 µM (inactive) and the IC50 [7] was 33.1 µM (inactive).

With `c1ccc(-c2nnc(SCc3ncco3)o2)cc1` the AC50 [8] was > 52 µM (inactive).

For `O=C1C(NS(=O)(=O)c2ccccc2)=C(c2ccccc2)C(=O)c2ccccc21`, the AC50 [9] was 65.6 µM (active), the AC50 [10] was 61.4 µM (active) and the AC50 [11] was > 70 µM (inactive). The AC50 [12] was 56.7 µM (active) and the AC50 [13] was 41 µM (active).

With `COC1=C/C(=C/c2c(O)c(C#N)c3ccccn23)C=CC1=O` the EC50 [14] was > 67.5 µM (inactive).

In the case of `CCCNC(=O)N1[C@H](C#N)[C@H](c2ccc(C3=CCCCC3)cc2)[C@H]1CO`, the AC50 [15] is reported as 0.374 µM (active), the AC50 [16] is reported as > 100 µM (inactive) and the AC50 [17] is reported as 0.424 µM (active). For the same compound, the AC50 [18] was 0.163 µM (active), the AC50 [19] was 18.3 µM (active) and the AC50 [20] was 0.113 µM (active).

With `CC(=O)Nc1ccc(OCC(=O)c2cc(C)n(-c3ccc(OC(F)F)cc3)c2C)cc1` the EC50 [21] was 2.4 µM (active).

With `Cc1ccc(OCCn2c(SCCO)nc3ccccc32)c(C(C)C)c1` the AC50 [22] was 50.8 µM (active) and the AC50 [23] was 31.2 µM (active).

In the case of `CC=CC1C(C(=O)OCc2c(F)c(F)c(COC)c(F)c2F)C1(C)C` (stereo not drawn), the IC50 [24] is reported as > 20 µM (inactive), the IC50 [25] is reported as > 20 µM (inactive) and the IC50 [26] is reported as > 20 µM (inactive). For the same compound, the IC50 [27] was > 20 µM (inactive), the IC50 [28] was > 20 µM (inactive) and the IC50 [29] was > 20 µM (inactive). The IC50 [30] was > 20 µM (inactive) and the IC50 [31] was > 20 µM (inactive).

In the case of `Cc1ccc(C(=O)C2=C(O)C(=O)N(Cc3ccccc3)C2c2cccnc2)o1` (stereo not drawn), the Ki (fMet-Leu-Phe receptor) is reported as > 66.7 µM (inactive).

With `CNCCCCOc1ccccc1Cc1ccccc1` [BIFEMELANE] the IC50 [32] was > 33.3 µM (inactive).

Reference: ChEMBL document CHEMBL1201862, “PubChem BioAssay data set” (2004)
